Measured values: patent US10167311B2, “Boronic acid esters and pharmaceutical formulations thereof” (OHIO STATE INNOVATION FOUNDATION, priority 2014, dated 2019)
Read-outs that look alike come from different tables or passages of the source.

Legend:
MV4-11 AML cells = experiment: Survival of MV4-11 engrafted NSG mice; assay type: in vivo; details: liposomal formulation, 1 mg/kg twice a week
Method: The therapeutic activity of BTZ-MEGA-CHOL was also investigated using animal studies. NSG mice were injected with 5×10^5 MV4-11 AML cells. The mice were divided into two groups of 10 each (Trial I), and were treated with empty liposomes or the liposomal formulation of BTZ-MEGA-CHOL at 1 mg/kg, twice a week, by tail vein injection. The study was repeated once with 5 mice in each group (Trial II). Three mice from each group were sacrificed after 4 weeks of treatment in Trial I for further analysis.
For Trial I, the p value was 0.0007 (FIG. 9). For Trial II the p value was 0.0019 (FIG. 10). When the data set was viewed as a combination, the p value was <0.0001 and median survival of the mice was 28 days for the empty liposome treated (control) group and 39 days for the BTZ-MEGA-CHOL treated group (FIG. 11).

[1] = Encapsulation (drug entrapment / loading) efficiency of liposomes, Sepharose CL-4B fractions, UV-vis OD 270 nm; assay type: physicochemical; details: liposomal formulation; drug in liposome fractions / total drug fractions
Method: The liposome particle size distribution is determined through dynamic light scattering on a NICOMP Submicron Particle Sizer Model 370. The encapsulation efficiency was examined by a UV-visible spectrophotometer as the OD at 270 nm after 1:9 methanol extraction of fractions from the Sepharose CL-4B column (FIG. 1). A reference measurement was also taken of the OD at 450 nm without methanol extraction (FIG. 1). Then, the ratio of total amount of drug content in the liposome fractions to total drug fractions was calculated. In this example, a drug entrapment of 41% was obtained. The liposome particle size distribution was determined through dynamic light scattering on a NICOMP Submicron Particle Sizer Model 370. The encapsulation efficiency was examined by a UV-visible spectrophotometer as the OD at 270 nm after 1:9 methanol dissolution of fractions collected from the Sepharose column. A reference measurement was also taken of the OD at 450 nm without methanol dissolution. Then, the ratio of total amount of drug content in the liposome fractions to total drug fractions was calculated. […] The liposome particle size distribution was determined through dynamic light scattering on a NICOMP Submicron Particle Sizer Model 370. […] Then, the ratio of total amount of drug content in the liposome fractions to total drug fractions was calculated. […] Each fraction was analyzed by UV-vis spectrophotometry. […]

[2] = cited from earlier work
[3] = Pharmacokinetics in plasma after i.v. administration (boron by ICP-OES); assay type: in vivo; details: ICR mice, i.v. 1.0 mg/kg, two-compartment model, mean ± SD (n = 3)
Method: The Pharmacokinetics of L-BTZ was studied in ICR mice (Charles River Lab, Wilmington, Mass.). The PK profile of free BTZ was also determined. Mice were given intravenous injections of free BTZ or L-BTZ at 1.0 mg/kg body weight via tail vein. At selected time intervals, a minimum of 100 μL […] was collected from each mouse using heparin-containing tubes. Plasma was then isolated by centrifugation at 3000× g for 5 min. The drug concentration in plasma was determined by measuring Boron concentration through an inductively coupled plasma-optical emission spectrometer (ICP-OES). The Boron extraction and sample preparation has been described previously. The pharmacokinetic parameters of free BTZ and L-BTZ were calculated using WinNonlin software and a two-compartment model and are shown in Table 1.

| SMILES | median survival (MV4-11 AML cells; tail vein, Trial I and II combined, p <0.0001 vs empty liposomes (28 days)) | survival of mice (MV4-11 AML cells; Trial I p 0.0007, Trial II p 0.0019) | drug entrapment (encapsulation efficiency) [1] | maximum tolerated dose ([2]; intravenous bolus on days 1, 4, 8, and 11 of a 3-week cycle) | maximum tolerated dose ([2]; patients with solid tumors, intravenously once or twice weekly) | T1/2α [3] | T1/2β [3] | AUC ([3]; mouse, iv) | clearance ([3]; mouse, iv) |
| --- | --- | --- | --- | --- | --- | --- | --- | --- | --- |
| CC(C)CCC[C@@H](C)C1CCC2C3CC=C4C[C@@H](OC(=O)N(C)CC(O)[C@H]5OB([C@H](CC(C)C)NC(=O)[C@H](Cc6ccccc6)NC(=O)c6cnccn6)O[C@@H]5C(O)CO)CC[C@]4(C)C3CC[C@@]21C (stereo partly drawn) [BTZ-MEGA-CHOL] | 39 days | significant increase in survival | 80.11% | – | – | – | – | – | – |
| CC(C)C[C@H](NC(=O)[C@H](Cc1ccccc1)NC(=O)c1cnccn1)B(O)O [Free BTZ, Bortezomib] | – | – | – | 1.56 mg/m^2 | 1.3 mg/m^2 | 6 ± 1.2 min | 18.26 ± 13.33 h | 2870 ± 1340 ng·h/mL | 5.8 mL/min/kg |
